Test results: publication PMC5780493, “Epsin and Sla2 form assemblies through phospholipid interfaces” (Nature Communications, 2018)
Substitutions are numbered along the chain they refer to. Values belong to the molecule of their own block, whether it stands above or below them.

Key:
[1] = molecular target: T1, CALM ANTH domain (Homo sapiens, UniProt Q13492); experiment: native MS titration, corrected for unspecific binding; settings: ammonium acetate 300 mM, 1 mM DTT, pH 8.0; 10 uM protein, 60 uM PIP2; two sites, not cooperative
T1 construct: gene PICALM; ANTH domain; E. coli, N-terminal His6 tag cut with TEV
T1 sequence (Q13492 1-289 limits assumed): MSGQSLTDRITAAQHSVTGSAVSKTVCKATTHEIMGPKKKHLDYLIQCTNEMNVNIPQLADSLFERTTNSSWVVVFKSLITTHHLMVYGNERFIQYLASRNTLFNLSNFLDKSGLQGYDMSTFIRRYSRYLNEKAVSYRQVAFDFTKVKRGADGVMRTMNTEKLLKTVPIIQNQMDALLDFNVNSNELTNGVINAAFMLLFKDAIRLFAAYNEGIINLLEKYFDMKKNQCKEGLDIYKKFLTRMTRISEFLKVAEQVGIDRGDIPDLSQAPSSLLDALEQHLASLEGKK

[2] = molecular target: T2, ANTHSla2 (S. cerevisiae) (Saccharomyces cerevisiae, UniProt P33338); experiment: as above; settings: ammonium acetate 300 mM, 1 mM DTT, pH 8.0; 10 uM protein, 60 uM PIP2; two sites, positive cooperativity
T2 construct: gene SLA2; ANTH domain (N-terminal); purified recombinant
T2 sequence (P33338 1-360 limits assumed): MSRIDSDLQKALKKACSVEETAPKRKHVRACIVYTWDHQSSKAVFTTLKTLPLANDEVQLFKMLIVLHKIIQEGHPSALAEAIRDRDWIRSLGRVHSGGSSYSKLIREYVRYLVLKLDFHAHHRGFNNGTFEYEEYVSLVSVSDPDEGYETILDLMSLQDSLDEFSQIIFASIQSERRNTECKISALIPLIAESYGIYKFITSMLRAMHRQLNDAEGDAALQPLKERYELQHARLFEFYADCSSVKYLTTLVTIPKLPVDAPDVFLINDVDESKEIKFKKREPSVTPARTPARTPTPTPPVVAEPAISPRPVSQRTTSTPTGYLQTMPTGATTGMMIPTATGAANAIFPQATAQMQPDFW

[3] = molecular target: T3, ANTHSla2 (C. thermophilum), ANTHCh (Thermochaetoides thermophila, UniProt G0S106); experiment: as above; settings: ammonium acetate 300 mM, 1 mM DTT, pH 8.0; 10 uM protein, 60 uM PIP2; two sites
T3 construct: gene CTHT_0011900; ANTH domain; E. coli, N-terminal His6 tag cut with TEV
T3 sequence (G0S106 entry or part of it): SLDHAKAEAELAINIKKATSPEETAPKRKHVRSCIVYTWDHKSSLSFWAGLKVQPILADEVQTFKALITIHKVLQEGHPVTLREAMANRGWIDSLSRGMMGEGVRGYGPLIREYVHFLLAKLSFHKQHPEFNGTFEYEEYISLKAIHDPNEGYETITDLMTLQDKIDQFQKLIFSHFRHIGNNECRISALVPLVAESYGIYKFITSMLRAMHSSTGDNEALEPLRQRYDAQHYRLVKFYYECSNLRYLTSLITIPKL

[4] = molecular target: T4, human epsin-1 ENTH/Hip1R ANTH complex (Homo sapiens, UniProt O75146+Q9Y6I3); experiment: native MS of assembled complex; format: binding; settings: ammonium acetate 300 mM, 1 mM DTT, pH 8.0; 10 uM ENTH, 10 uM ANTH, 60 uM PIP2; stoichiometry
T4 construct: gene EPN1; EPN1 aa 1-158 (extra Gly after Met) and Hip1R aa 1-300; His-GST tags cut with TEV; 6:0 to 8:8, mainly 6:6
T4 sequence (Q9Y6I3 1-158): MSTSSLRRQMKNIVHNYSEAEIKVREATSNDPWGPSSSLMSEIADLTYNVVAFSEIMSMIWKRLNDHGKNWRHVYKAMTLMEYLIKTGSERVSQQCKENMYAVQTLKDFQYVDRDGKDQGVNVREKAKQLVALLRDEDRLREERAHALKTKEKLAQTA
T4 sequence (O75146 1-300): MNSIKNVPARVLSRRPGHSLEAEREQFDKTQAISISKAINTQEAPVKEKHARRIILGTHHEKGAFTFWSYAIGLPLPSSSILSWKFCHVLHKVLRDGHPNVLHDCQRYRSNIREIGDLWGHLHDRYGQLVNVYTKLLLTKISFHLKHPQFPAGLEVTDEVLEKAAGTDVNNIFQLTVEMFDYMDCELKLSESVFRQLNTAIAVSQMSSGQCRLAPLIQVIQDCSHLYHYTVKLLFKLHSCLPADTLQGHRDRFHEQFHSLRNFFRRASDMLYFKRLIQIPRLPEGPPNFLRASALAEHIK

[5] = molecular target: T5, ENTH1 (Ent1 ENTH domain, S. cerevisiae) (Saccharomyces cerevisiae, UniProt Q12518); experiment: native MS titration, corrected for unspecific binding; settings: ammonium acetate 300 mM, 1 mM DTT, pH 8.0; 10 uM protein, 60 uM PIP2; two sites, positive cooperativity
T5 construct: ENTH domain (N-terminal); purified recombinant
T5 sequence (Q12518 1-154): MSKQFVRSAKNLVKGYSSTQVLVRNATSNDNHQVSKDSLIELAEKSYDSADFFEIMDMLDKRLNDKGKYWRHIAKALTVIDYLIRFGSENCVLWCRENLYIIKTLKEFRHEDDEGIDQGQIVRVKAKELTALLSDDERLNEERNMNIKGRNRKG

[6] = molecular target: T6, ENTH2 (Ent2 ENTH domain, S. cerevisiae) (Saccharomyces cerevisiae, UniProt Q05785); experiment: as above; settings: ammonium acetate 300 mM, 1 mM DTT, pH 8.0; 10 uM protein, 60 uM PIP2; two sites, positive cooperativity
T6 construct: ENTH domain (N-terminal); purified recombinant; two domains sandwich one PIP2 in the crystal
T6 sequence (Q05785 1-156): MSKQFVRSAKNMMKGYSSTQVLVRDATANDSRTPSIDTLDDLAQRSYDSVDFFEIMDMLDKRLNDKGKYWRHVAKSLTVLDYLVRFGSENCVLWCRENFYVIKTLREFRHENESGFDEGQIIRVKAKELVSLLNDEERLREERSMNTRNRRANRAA

[7] = molecular target: T6, ENTH2 (Ent2 ENTH domain, S. cerevisiae); experiment: X-ray crystal structure, […] A; format: binding; settings: 0.1 M MES pH 6.5, 1.45 M ammonium sulfate; canonical phosphoinositide pocket, dimer interface
[8] = molecular target: T7, ENTH (epsin ENTH domain, C. thermophilum) (Thermochaetoides thermophila, UniProt G0SAK2); experiment: native MS titration, corrected for unspecific binding; settings: ammonium acetate 300 mM, 1 mM DTT, pH 8.0; 10 uM protein, 60 uM PIP2; two sites, positive cooperativity
T7 construct: ENTH domain; E. coli, N-terminal His6 tag cut with TEV
T7 sequence (G0SAK2 with tags, fused parts or gaps): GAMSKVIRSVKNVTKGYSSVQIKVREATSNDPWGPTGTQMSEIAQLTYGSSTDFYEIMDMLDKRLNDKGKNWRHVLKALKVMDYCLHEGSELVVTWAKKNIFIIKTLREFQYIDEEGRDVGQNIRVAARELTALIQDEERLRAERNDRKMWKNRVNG

[9] = molecular target: T8, human epsin-1 ENTH (EPN1) (Homo sapiens, UniProt Q9Y6I3); experiment: native MS; SAXS; format: binding; settings: hexamer formation with PIP2; SAXS in 20 mM Tris-HCl pH 8.0, 250 mM NaCl, 0.2 mM PIP2
T8 construct: ENTH domain aa 1-158, extra Gly after start Met; E. coli His-GST fusion, tag cut with TEV; hexamer with PIP2
T8 sequence (Q9Y6I3 1-158): T4 sequence (Q9Y6I3 1-158)

[10] = molecular target: T2, ANTHSla2 (S. cerevisiae); experiment: native MS titration, corrected for unspecific binding; settings: ammonium acetate 300 mM, 1 mM DTT, pH 8.0; 10 uM protein, 60 uM PIP2; second site (canonical site removed)
[11] = molecular target: T9, ENTH1 (Ent1 ENTH domain, S. cerevisiae) (Saccharomyces cerevisiae, UniProt Q12518, T104E); experiment: native MS; format: binding; settings: ammonium acetate, 1 mM DTT, pH 8.0; 10 uM protein, 60 uM PIP2
T9 construct: ENTH domain (N-terminal); purified recombinant
T9 sequence (Q12518 1-154 T104E): T5 sequence (Q12518 1-154) with T104E

[12] = molecular target: T10, Epsin (Ent1) ENTH (Saccharomyces cerevisiae, UniProt Q12518); experiment: ITC
T10 chain: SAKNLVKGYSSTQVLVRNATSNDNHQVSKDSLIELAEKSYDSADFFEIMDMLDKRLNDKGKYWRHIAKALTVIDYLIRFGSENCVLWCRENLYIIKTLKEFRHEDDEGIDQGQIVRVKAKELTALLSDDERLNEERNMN

- KD,1 / KD,2 (macroscopic) [5]: ENTH1 and ENTH2) from S. cerevisiae
- KD,1 / KD,2 (macroscopic) [6]: ENTH1 and ENTH2) from S. cerevisiae
- dissociation constant [10]: 300 ± 70 µM
Molecule: CCCCCCCC(=O)OC[C@H](COP(=O)(O)O[C@@H]1[C@H](O)[C@H](O)[C@@H](OP(=O)(O)O)[C@H](OP(=O)(O)O)[C@H]1O)OC(=O)CCCCCCC [PIP2]
- KD,1 / KD,2 (macroscopic) [1]: macroscopic dissociation constants for CALM suggest higher affinity for the first PIP2-binding site
- KD,1 / KD,2 (macroscopic) [2]: PIP2 dissociation constants are higher for Sla2 ANTH domains than for ENTH domains
- KD,1 / KD,2 (macroscopic) [3]: several ANTH domains, showing two PIP2 binding sites for all wild-type proteins
- native MS of assembled complex [4]: human epsin-1 ENTH domain with human Hip1R ANTH domain and PIP2
- X-ray crystal structure, 3.35 A [7]: The structure shows two ENTH2 domains sandwiched around one PIP2 molecule
- KD,1 / KD,2 (macroscopic) [8]: homologous epsin from C. thermophilum bind up to two PIP2 molecules per domain
- native MS; SAXS [9]: A minimum of six PIP2 molecules is required for human ENTH hexamer formation
- native MS [11]: Thr104Glu mutant of ENTH1 from S. cerevisiae shows a reduction of PIP2 binding

- Kd [12]: 450 nM
B1: Sla2 ANTH (protein)
chain: MSRIDSDLQKALKKACSVEETAPKRKHVRACIVYTWDHQSSKAVFTTLKTLPLANDEVQLFKMLIVLHKIIQEGHPSALAEAIRDRDWIRSLGRVHSGGSSYSKLIREYVRYLVLKLDFHAHHRGFNNGTFEYEEYVSLVSVSDPDEGYETILDLMSLQDSLDEFSQIIFASIQSERRNTECKISALIPLIAESYGIYKFITSMLRAMHRQLNDAEGDAALQPLKERYELQHARLFEFYADCSSVKYLTTLVTIPKLPVDAPDVFLINDVDESKEIKFKKREPSVT
modifications: PIP2
